Molecular target: human O-GlcNAc-β-N-acetylglucosaminidase (OGA) (Homo sapiens (Human), UniProt O60502)
Experiment: In Vitro Human OGA Enzyme Assay
Assay type: biochemical
Details: full-length His-tagged human OGA; FD-GlcNAc substrate 6.7 μM; 30 min pre-incubation, 60 min reaction, pH 7
Experimental: The nucleotide sequence encoding full-length human O-GlcNAc-β-N-acetylglucosaminidase (NM_012215) is inserted into pFastBacl (Invitrogen) vector with an N-terminal poly-histidine (HIS) tag. Baculovirus generation is carried out according to the Bac-to-Bac Baculovirus Expression system (Invitrogen) protocol. Sf9 cells are infected at 1.5×10^6 cells/mL using 10 mL of P1 virus per Liter of culture and incubated at 28° C. for 48 hrs. Cells are spun down, rinsed with PBS and the pellets stored at −80° C. The above OGA protein (His-OGA) is purified as follows: 4 L of cells are lysed in 200 mL of buffer containing 50 mM Tris, pH 8.0, 300 mM NaCl, 10% glycerol, 10 mM imidazole, 1 mM dithiothreitol (DTT), 0.1% Triton™ X-100, 4 tablets of protease inhibitors (complete EDTA-Free, Roche) for 45 min at 4° C. This cell lysate is then spun for 40 min at 16500 rpm at 4° C., and supernatant incubated with 6 mL of Ni-NTA resin (nickel-nitrilotriacetic acid) for 2 hours at 4° C.
Resin is then packed onto column and washed with 50 mM Tris, pH 8.0, 300 mM NaCl, 10% glycerol, 10 mM imidazole, 0.1% Triton™ X-100, 1 mM DTT, followed by 50 mM Tris, pH 8.0, 150 mM NaCl, 10 mM imidazole, 10% glycerol, 1 mM DTT. The proteins are eluted with 50 mM Tris, pH 8.0, 150 mM NaCl, 300 mM imidazole, 10% glycerol, 1 mM DTT. Pooled His-OGA containing fractions are concentrated to 6 ml and loaded onto Superdex75 (16/60). The protein is eluted with 50 mM Tris, pH 8.0, 150 mM NaCl, 10% glycerol, 2 mM DTT. Fractions containing His-OGA are pooled and protein concentration measured with BCA ([…]).
The OGA enzyme catalyses the removal of O-GlcNAc from nucleocytoplasmic proteins. To measure this activity Fluorescein di-N-acetyl-β-N-acetyl-D-glucosaminide (FD-GlcNAc, Kim, Eun Ju; Kang, Dae Ook; Love, Dona C.; Hanover, John A. Carbohydrate Research (2006), 341(8), 971-982) is used as a substrate at a final concentration of 6.7 μM (in a 384 well assay format). This fluorogenic substrate becomes fluorescent upon cleavage by OGA, so that the enzyme activity can be measured by the increase in fluorescence detected at 535 nm (excitation at 485 nm).
The assay buffer is prepared to give a final concentration of 50 mM […], 0.01% bovine serum albumin and 0.01% Triton™ X-100 in water, at pH 7. Compounds to be tested are diluted in pure dimethyl sulfoxide (DMSO) using ten point concentration response curves. Maximal compound concentration in the reaction mixture is 30 or 1 μM. […] Then, without stopping the reaction, fluorescence is read. IC50 values are calculated by plotting the normalized data vs. log of the compound and fitting the data using a four parameter logistic equation.

Sequence of human O-GlcNAc-β-N-acetylglucosaminidase (OGA) (O60502 whole entry): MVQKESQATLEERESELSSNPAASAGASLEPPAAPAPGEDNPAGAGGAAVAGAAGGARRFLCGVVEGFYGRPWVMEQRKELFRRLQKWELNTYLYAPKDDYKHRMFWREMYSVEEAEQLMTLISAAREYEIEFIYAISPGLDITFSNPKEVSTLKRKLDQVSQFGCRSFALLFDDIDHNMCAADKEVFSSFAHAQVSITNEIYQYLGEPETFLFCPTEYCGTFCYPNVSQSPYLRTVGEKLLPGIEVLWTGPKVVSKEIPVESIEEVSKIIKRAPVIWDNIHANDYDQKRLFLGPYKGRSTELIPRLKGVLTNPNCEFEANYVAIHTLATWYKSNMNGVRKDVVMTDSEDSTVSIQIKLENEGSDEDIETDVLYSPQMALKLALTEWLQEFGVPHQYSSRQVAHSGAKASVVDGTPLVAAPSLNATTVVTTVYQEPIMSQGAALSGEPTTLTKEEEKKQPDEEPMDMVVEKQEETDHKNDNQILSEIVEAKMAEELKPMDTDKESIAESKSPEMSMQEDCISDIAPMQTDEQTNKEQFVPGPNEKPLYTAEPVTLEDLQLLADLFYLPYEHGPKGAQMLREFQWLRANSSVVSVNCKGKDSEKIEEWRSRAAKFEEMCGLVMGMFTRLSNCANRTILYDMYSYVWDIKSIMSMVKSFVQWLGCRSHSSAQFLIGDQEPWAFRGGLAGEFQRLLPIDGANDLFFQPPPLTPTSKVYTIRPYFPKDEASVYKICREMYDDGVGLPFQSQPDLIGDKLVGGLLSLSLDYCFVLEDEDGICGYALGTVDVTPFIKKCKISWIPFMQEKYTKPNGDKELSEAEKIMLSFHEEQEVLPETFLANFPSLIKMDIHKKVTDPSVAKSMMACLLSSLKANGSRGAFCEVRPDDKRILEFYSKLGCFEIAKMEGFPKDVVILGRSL

| SMILES | IC50 |
| --- | --- |
| Cc1nnc(C2CCN(C(C)c3nc4c(cc3F)CCO4)CC2)o1 (single isomer, unassigned; (-)) [Example 2, (−)-5-fluoro-6-[1-[4-(5-methyl-1,3,4-oxadiazol-2-yl)-1-piperidyl]ethyl]-2,3-dihydrofuro[2,3-b]pyridine] | 1.13 ± 1.02 nM |
| Cc1nnc(C2CCN(C(C)c3nc4c(cc3F)CCO4)CC2)o1 (single isomer, unassigned; (+)) [Example 4, (+)-5-fluoro-6-[1-[4-(5-methyl-1,3,4-oxadiazol-2-yl)-1-piperidyl]ethyl]-2,3-dihydrofuro[2,3-b]pyridine] | 2660 ± 607 nM |
| Cc1nnc(C2CCN(C(C)c3ccc4c(n3)OCC4)CC2)o1 (single isomer, unassigned; (-)) [Example 1, (−)-6-[1-[4-(5-methyl-1,3,4-oxadiazol-2-yl)-1-piperidyl]ethyl]-2,3-dihydrofuro[2,3-b]pyridine] | 1.24 ± 0.66 nM |
| Cc1nnc(C2CCN(C(C)c3ccc4c(n3)OCC4)CC2)o1 (single isomer, unassigned; (+)) [Example 3] | 611 nM |

— patent US11214576B2, “2,3-dihydrofuro[2,3-b]pyridine compounds” (Eli Lilly and Company, priority 2018, dated 2022)
